Values quoted from earlier work, collected in patent US20090011476A1, “GENE CLUSTER AND METHOD FOR THE BIOSYNTHESIS OF TERREQUINONE A” (Wisconsin Alumni Research Foundation, priority 2005, published 2009).

System: tumor cell lines
Details: literature statement, values not given

Substance: terrequinone A
- inhibitory properties on tumor cell lines: inhibitory properties
